Experimental findings from US20130344026A1, “Dimeric Smac Mimetics” (priority 2009, published 2013) are described below.

*1 amine or outer side, *2 acyl side, *3 side chain or, on linkers, in order; H or OH if unused. Where a SMILES comes first, the peptide text is derived from it. Bridges are numbered along the chain shown (N, C = ends). Roman numbers before positions name the chains, in order. [ ]: non-standard residue; d: D form. Piperazine(1,4-diyl) = C1CN([*:2])CCN1[*:1]; NH(CH2)8NH = C(CCCCN[*:2])CCCN[*:1]; Chg = N[C@H](C(=O)O)C1CCCCC1; Tle = CC(C)(C)[C@H](N)C(=O)O; NMeA = CN[C@@H](C)C(=O)O

As a reminder, the IC50 is the concentration that inhibits the measured activity by half.

In the first test the test system is HCC461. Kind of test: cell viability assay in HCC461, compound alone. In kind it is cell-based. The note with it: HCC461, HCC461; Tables 15-18; read-out: IC50 (uM) in cell viability assay in HCC461.
For the molecule `CN[C@@H](C)C(=O)N[C@H](C(=O)N1CCC[C@H]1C(=O)N[C@H](C(=O)NCCC#CC#CCCNC(=O)[C@@H](NC(=O)[C@@H]1CCCN1C(=O)[C@@H](NC(=O)[C@H](C)NC)C(C)(C)C)C1CCCCC1)C1CCCCC1)C(C)(C)C` [Compound P4-1], the 50% inhibitory concentration (IC50) turned out to be 0.08 µM. With `CN[C@@H](C)C(=O)N[C@H](C(=O)N1CCC[C@H]1C(=O)N[C@H](CNC(=O)C1CCC(C(=O)NC[C@@H](NC(=O)[C@@H]2CCCN2C(=O)[C@@H](NC(=O)[C@H](C)NC)C(C)(C)C)C2CCCCC2)CC1)C1CCCCC1)C(C)(C)C` (some centres unmarked) [Compound P4-6], the half-maximal inhibitory concentration (IC50) was determined as 0.07 µM.

`CN[C@@H](C)C(=O)N[C@H](C(=O)N1CCC[C@H]1C(=O)N[C@H](C(=O)NCCCCCCCCNC(=O)[C@@H](NC(=O)[C@@H]1CCCN1C(=O)[C@@H](NC(=O)[C@H](C)NC)C(C)(C)C)C1CCCCC1)C1CCCCC1)C(C)(C)C` [Compound P4-7] (I: H-[NMeA][Tle]P[Chg] / II: H-[NMeA][Tle]P[Chg]; linker I:C-II:C via NH(CH2)8NH): the IC50 came out at 0.205 µM. For `CN[C@@H](C)C(=O)N[C@H](C(=O)N1CCC[C@H]1C(=O)N[C@H](CNC(=O)c1ccc(C(=O)NC[C@@H](NC(=O)[C@@H]2CCCN2C(=O)[C@@H](NC(=O)[C@H](C)NC)C(C)(C)C)C2CCCCC2)cc1)C1CCCCC1)C(C)(C)C` [Compound P4-8], the IC50 is 0.2 µM. On to `CN[C@@H](C)C(=O)N[C@H](C(=O)N1CCC[C@H]1C(=O)N[C@H](CNC(=O)c1cc(N)cc(C(=O)NC[C@@H](NC(=O)[C@@H]2CCCN2C(=O)[C@@H](NC(=O)[C@H](C)NC)C(C)(C)C)C2CCCCC2)c1)C1CCCCC1)C(C)(C)C` [Compound P4-9], for which the 50% inhibitory concentration (IC50) was 0.53 µM. Take `CN[C@@H](C)C(=O)N[C@H](C(=O)N1CCC[C@H]1C(=O)N[C@H](C(=O)N1CCN(C(=O)[C@@H](NC(=O)[C@@H]2CCCN2C(=O)[C@@H](NC(=O)[C@H](C)NC)C(C)(C)C)C2CCCCC2)CC1)C1CCCCC1)C(C)(C)C` [Compound P4-10] (I: H-[NMeA][Tle]P[Chg] / II: H-[NMeA][Tle]P[Chg]; linker I:C-II:C via Piperazine(1,4-diyl)): the concentration for half-maximal inhibition (IC50) was determined as 0.26 µM.

Turning to `CN[C@@H](C)C(=O)N[C@H](C(=O)N1CCC[C@H]1C(=O)N[C@H](CNC(=O)c1cccc(C(=O)NC[C@@H](NC(=O)[C@@H]2CCCN2C(=O)[C@@H](NC(=O)[C@H](C)NC)C(C)(C)C)c2ccccc2)c1)c1ccccc1)C(C)(C)C` [Compound P4-11], the IC50 stood at 0.068 µM. The same measure, in the same setting: in the case of `CN[C@@H](C)C(=O)N[C@H](C(=O)N1CCC[C@H]1C(=O)N[C@H](CNC(=O)c1ccc(C(=O)NC[C@@H](NC(=O)[C@@H]2CCCN2C(=O)[C@@H](NC(=O)[C@H](C)NC)C(C)(C)C)c2ccccc2)cc1)c1ccccc1)C(C)(C)C` [Compound P4-12] it was 0.038 µM; in that of `CN[C@@H](C)C(=O)N[C@H](C(=O)N1CCC[C@H]1C(=O)N[C@H](CNC(=O)c1cc(N)cc(C(=O)NC[C@@H](NC(=O)[C@@H]2CCCN2C(=O)[C@@H](NC(=O)[C@H](C)NC)C(C)(C)C)c2ccccc2)c1)c1ccccc1)C(C)(C)C` [Compound P4-13], 0.089 µM; in that of `CN[C@@H](C)C(=O)N[C@H](C(=O)N1CCC[C@H]1C(=O)N[C@H](CNC(=O)CCCC(=O)NC[C@@H](NC(=O)[C@@H]1CCCN1C(=O)[C@@H](NC(=O)[C@H](C)NC)C(C)(C)C)c1ccccc1)c1ccccc1)C(C)(C)C` [Compound P4-14], 0.093 µM.

With `CN[C@@H](C)C(=O)N[C@H](C(=O)N1CCC[C@H]1C(=O)N[C@H](CNC(=O)[C@H]1CC[C@@](C)(C(=O)NC[C@@H](NC(=O)[C@@H]2CCCN2C(=O)[C@@H](NC(=O)[C@H](C)NC)C(C)(C)C)c2ccccc2)C1(C)C)c1ccccc1)C(C)(C)C` [Compound P4-15], the 50% inhibitory concentration (IC50) was determined as 0.085 µM. The same measure, in the same setting: the value for `CN[C@@H](C)C(=O)N[C@H](C(=O)N1CCC[C@H]1C(=O)N[C@H](CNC(=O)c1cccc(C(=O)NC[C@@H](NC(=O)[C@@H]2CCCN2C(=O)[C@@H](NC(=O)[C@H](C)NC)C2CCCCC2)C2CCCCC2)c1)C1CCCCC1)C1CCCCC1` [Compound P4-16] was 0.13 µM; that for `CN[C@@H](C)C(=O)N[C@H](C(=O)N1CCC[C@H]1C(=O)N[C@H](COCc1ccc(COC[C@@H](NC(=O)[C@@H]2CCCN2C(=O)[C@@H](NC(=O)[C@H](C)NC)C(C)(C)C)C2CCCCC2)cc1)C1CCCCC1)C(C)(C)C` [Compound P4-17] was 0.015 µM. With `CN[C@@H](C)C(=O)N[C@H](C(=O)N1CCC[C@H]1C(=O)N[C@H](COCc1cccc(COC[C@@H](NC(=O)[C@@H]2CCCN2C(=O)[C@@H](NC(=O)[C@H](C)NC)C(C)(C)C)C2CCCCC2)c1)c1ccccc1)C(C)(C)C` [Compound P4-18], the IC50 amounted to 0.013 µM.

The same test, now with this note: HCC461, HCC461 cells, compound alone; read-out: IC50 (uM) in cell viability assay in HCC461.
Turning to `CN[C@@H](C)C(=O)N[C@H](C(=O)N1C[C@@H](NC(=O)c2cc(N)cc(C(=O)N[C@H]3C[C@@H](C(=O)N[C@H](C)c4ccccc4)N(C(=O)[C@@H](NC(=O)[C@H](C)NC)C4CCCCC4)C3)c2)C[C@H]1C(=O)N[C@H](C)c1ccccc1)C1CCCCC1` [Compound P3-78], the IC50 worked out at 0.049 µM.

Turning to `CN[C@@H](C)C(=O)N[C@H](C(=O)N1C[C@@H](NC(=O)c2cc(C(=O)N[C@H]3C[C@@H](C(=O)N[C@H](C)c4ccccc4)N(C(=O)[C@@H](NC(=O)[C@H](C)NC)C4CCCCC4)C3)[nH]n2)C[C@H]1C(=O)N[C@H](C)c1ccccc1)C1CCCCC1` [Compound P3-79], the IC50 is 0.057 µM. As to `CN[C@@H](C)C(=O)N[C@H](C(=O)N1C[C@@H](NC(=O)c2cccc(C(=O)N[C@H]3C[C@@H](C(=O)N[C@H](C)c4ccccc4)N(C(=O)[C@@H](NC(=O)[C@H](C)NC)C(C)C)C3)c2)C[C@H]1C(=O)N[C@H](C)c1ccccc1)C(C)C` [Compound P3-80], the concentration for half-maximal inhibition (IC50) turned out to be 0.053 µM. The same measure, in the same setting: in the case of `CN[C@@H](C)C(=O)N[C@H](C(=O)N1C[C@@H](NC(=O)c2cc(N)cc(C(=O)N[C@H]3C[C@@H](C(=O)N[C@H](C)c4ccccc4)N(C(=O)[C@@H](NC(=O)[C@H](C)NC)C(C)C)C3)c2)C[C@H]1C(=O)N[C@H](C)c1ccccc1)C(C)C` [Compound P3-81] it was 0.058 µM. On to `CN[C@@H](C)C(=O)N[C@H](C(=O)N1C[C@@H](NC(=O)c2cc(C(=O)N[C@H]3C[C@@H](C(=O)N[C@H](C)c4ccccc4)N(C(=O)[C@@H](NC(=O)[C@H](C)NC)C(C)C)C3)[nH]n2)C[C@H]1C(=O)N[C@H](C)c1ccccc1)C(C)C` [Compound P3-82], for which the half-maximal inhibitory concentration (IC50) came to 0.063 µM. On the same count and under the same terms, in the case of `CN[C@@H](C)C(=O)N[C@H](C(=O)N1C[C@@H](NC(=O)c2cccc(C(=O)N[C@H]3C[C@@H](C(=O)N[C@H](C)C(C)C)N(C(=O)[C@@H](NC(=O)[C@H](C)NC)C(C)(C)C)C3)c2)C[C@H]1C(=O)N[C@H](C)C(C)C)C(C)(C)C` [Compound P3-83] it was 0.196 µM. Same read-out and setting: in the case of `CN[C@@H](C)C(=O)N[C@H](C(=O)N1C[C@@H](NC(=O)C(O)CC(=O)N[C@H]2C[C@@H](C(=O)NC3CCCc4ccccc43)N(C(=O)[C@@H](NC(=O)[C@H](C)NC)C(C)(C)C)C2)CC1C(=O)N[C@@H]1CCCc2ccccc21)C(C)(C)C` (some centres unmarked) [Compound P3-84] it was 0.1 µM; in that of `CN[C@@H](C)C(=O)N[C@H](C(=O)N1C[C@@H](NC(=O)CCCCCCC(=O)N[C@H]2C[C@@H](C(=O)N[C@@H]3CCCc4ccccc43)N(C(=O)[C@@H](NC(=O)[C@H](C)NC)C(C)(C)C)C2)C[C@H]1C(=O)N[C@@H]1CCCc2ccccc21)C(C)(C)C` [Compound P3-85], 0.099 µM. As for `CN[C@@H](CO)C(=O)N[C@H](C(=O)N1C[C@@H](NC(=O)c2cccc(C(=O)N[C@H]3C[C@@H](C(=O)N[C@@H]4CCCc5ccccc54)N(C(=O)[C@@H](NC(=O)[C@H](CO)NC)C(C)(C)C)C3)c2)C[C@H]1C(=O)N[C@@H]1CCCc2ccccc21)C(C)(C)C` [Compound P3-86], the concentration for half-maximal inhibition (IC50) was determined as 0.077 µM. The same measure, in the same setting: the value for `CN[C@@H](C)C(=O)N[C@H](C(=O)N1C[C@@H](n2cc(CCCc3cn([C@H]4C[C@@H](C(=O)N[C@H](C)c5ccccc5)N(C(=O)[C@@H](NC(=O)[C@H](C)NC)C(C)(C)C)C4)nn3)nn2)C[C@H]1C(=O)N[C@H](C)c1ccccc1)C(C)(C)C` [Compound P3-87] was 0.028 µM. As to `CN[C@@H](C)C(=O)N[C@H](C(=O)N1C[C@@H](n2cc(-c3cccc(-c4cn([C@H]5C[C@@H](C(=O)N[C@H](C)c6ccccc6)N(C(=O)[C@@H](NC(=O)[C@H](C)NC)C(C)(C)C)C5)nn4)c3)nn2)C[C@H]1C(=O)N[C@H](C)c1ccccc1)C(C)(C)C` [Compound P3-88], the half-maximal inhibitory concentration (IC50) was 0.033 µM. As to `CN[C@@H](CO)C(=O)N[C@H](C(=O)N1C[C@@H](NC(=O)c2cccc(C(=O)N[C@H]3C[C@@H](C(=O)N[C@H](C)c4ccccc4)N(C(=O)[C@@H](NC(=O)[C@H](CO)NC)C(C)C)C3)c2)C[C@H]1C(=O)N[C@H](C)c1ccccc1)C(C)C` [Compound P3-89], the IC50 was determined as 0.073 µM.
